Test results published in paper PMC6025150, “Synthesis, enzyme inhibitory kinetics mechanism and computational study of N-(4-methoxyphenethyl)-N-(substituted)-4-methylbenzenesulfonamides as novel therapeutic agents for Alzheimer’s disease” (PeerJ, 2018).
Where “and” joins values, the source holds several entries; their conditions need not be identical. Identical values can stand only once.

Target: T1, acetylcholinesterase (from human erythrocytes) (Homo sapiens, UniProt P22303)
T1 construct: acetylcholinesterase (from human erythrocytes, purchased from Sigma-Aldrich, Seoul, Korea); purchased Sigma-Aldrich, Seoul, Korea; host or cells: human erythrocytes (natural source)
Assay: biochemical
Design: LogIC50 (best-fit value): unit not given here
Conditions: each of three independent experiments; Raw Data of IC50 sheet; read-out: IC50, single experiment (converted)
Method: The inhibitory activities of synthesized compounds were determined spectrophotometrically using acetylthiocholine iodide as substrate by following the method of ([Ellman et al., 1961]). Briefly, The assay solution consisted of 180 µL of 50 mM Tris-HCl buffer, pH 7.7, containing (0.1 M sodium chloride and 0.02 M magnesium chloride) and 20 µL of enzyme (AChE, EC 3.1.1.7), acetylcholinesterase (from human erythrocytes, purchased from Sigma-Aldrich, Seoul, Korea) solution (50 U per well); increasing concentrations of test compounds (10 µL) were added to the assay solution and pre incubated for 30 min at 4 °C. After that 5,5′ Dithiobis (2 nitrobenzoic acid) (0.3 mM, 20 µL) and acetylthiocholine iodide (1.8 mM, 20 µL) were added to the reaction mixture and incubated at 37 °C for 10 min, followed by the measurement of absorbance at 412 nm. For non-enzymatic reaction, the assays were carried out with a blank containing all components except acetylcholinesterase. The assay measurements were measured at 412 nm using a micro plate reader (OPTI Max Tunable; Molecular Devices, Sunnyvale, CA, USA) having a wave-length range from 340–850 nm; for 96 well plates. The reaction rates were compared and percent inhibition was calculated due to the presence of tested inhibitors. […] Each concentration was analyzed in three independent experiments run in triplicate. The IC50 values were calculated by nonlinear regression using GraphPad Prism 5.0.
The % of Inhibition of Acetylcholinesterase was calculated as following: Inhibition%=B−S∕B×100. Here, the B and S are the absorbance’s for the blank and samples.

T1 sequence (P22303 32-617 isoform P22303-2 limits assumed): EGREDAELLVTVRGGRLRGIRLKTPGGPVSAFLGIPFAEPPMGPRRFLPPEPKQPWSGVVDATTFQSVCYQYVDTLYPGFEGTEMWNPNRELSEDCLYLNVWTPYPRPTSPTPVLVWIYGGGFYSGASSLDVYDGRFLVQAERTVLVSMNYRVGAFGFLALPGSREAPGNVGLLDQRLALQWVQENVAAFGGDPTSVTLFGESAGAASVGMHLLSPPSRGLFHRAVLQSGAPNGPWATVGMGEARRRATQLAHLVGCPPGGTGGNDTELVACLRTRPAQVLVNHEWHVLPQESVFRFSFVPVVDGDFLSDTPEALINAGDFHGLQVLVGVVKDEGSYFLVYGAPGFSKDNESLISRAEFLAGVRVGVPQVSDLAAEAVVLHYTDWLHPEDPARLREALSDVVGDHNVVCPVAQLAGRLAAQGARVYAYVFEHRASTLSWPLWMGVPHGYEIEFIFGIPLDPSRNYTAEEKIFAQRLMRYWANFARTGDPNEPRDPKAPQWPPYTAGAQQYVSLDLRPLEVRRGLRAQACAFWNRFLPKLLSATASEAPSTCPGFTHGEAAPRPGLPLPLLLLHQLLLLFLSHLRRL

| Structure (SMILES) | IC50 |
| --- | --- |
| CCCCCCCN(CCc1ccc(OC)cc1)S(=O)(=O)c1ccc(C)cc1 [Compound 5f, N-(1-Heptyl)-N-(4-methoxyphenethyl)-4-methylbenzensulfonamide] | 0.474 µM and 0.427 µM |
| CCCCN(CCc1ccc(OC)cc1)S(=O)(=O)c1ccc(C)cc1 [Compound 5d, N-(1-Butyl)-N-(4-methoxyphenethyl)-4-methylbenzensulfonamide] | 0.0997 µM and 0.134 µM |
| CCN(CCc1ccc(OC)cc1)S(=O)(=O)c1ccc(C)cc1 [Compound 5a, N-Ethyl-N-(4-methoxyphenethyl)-4-methylbenzensulfonamide] | 25 µM and 21 µM and 21.6 µM |
| CCCN(CCc1ccc(OC)cc1)S(=O)(=O)c1ccc(C)cc1 [Compound 5b, N-(4-Methoxyphenethyl)-4-methyl-N-(1-propyl)benzensulfonamide] | 4.77 µM and 3.7 µM and 4.01 µM |
| CCCCCN(CCc1ccc(OC)cc1)S(=O)(=O)c1ccc(C)cc1 [Compound 5e, N-(4-Methoxyphenethyl)-4-methyl-N-(1-pentyl)benzensulfonamide] | 0.374 µM and 0.414 µM and 0.406 µM |

Same assay, conditions: from human erythrocytes; mean ± SEM; read-out: Acetylcholinesterase IC50 ± SEM

| Structure (SMILES) | IC50 [µM] |
| --- | --- |
| CCCCCCCN(CCc1ccc(OC)cc1)S(=O)(=O)c1ccc(C)cc1 [Compound 5f, N-(1-Heptyl)-N-(4-methoxyphenethyl)-4-methylbenzensulfonamide] | 0.444 ± 0.015 |
| CCCCN(CCc1ccc(OC)cc1)S(=O)(=O)c1ccc(C)cc1 [Compound 5d, N-(1-Butyl)-N-(4-methoxyphenethyl)-4-methylbenzensulfonamide] | 0.12 ± 0.0102 |
| CCN(CCc1ccc(OC)cc1)S(=O)(=O)c1ccc(C)cc1 [Compound 5a, N-Ethyl-N-(4-methoxyphenethyl)-4-methylbenzensulfonamide] | 22.5 ± 1.23 |
| CCCN(CCc1ccc(OC)cc1)S(=O)(=O)c1ccc(C)cc1 [Compound 5b, N-(4-Methoxyphenethyl)-4-methyl-N-(1-propyl)benzensulfonamide] | 4.16 ± 0.318 |
| CCCCCN(CCc1ccc(OC)cc1)S(=O)(=O)c1ccc(C)cc1 [Compound 5e, N-(4-Methoxyphenethyl)-4-methyl-N-(1-pentyl)benzensulfonamide] | 0.398 ± 0.0123 |

Same assay, conditions: log(inhibitor) vs. response fit, single run; IC50 Raw Data sheet

| Structure (SMILES) | LogIC50 (best-fit value) |
| --- | --- |
| CCCCCCCN(CCc1ccc(OC)cc1)S(=O)(=O)c1ccc(C)cc1 [Compound 5f, N-(1-Heptyl)-N-(4-methoxyphenethyl)-4-methylbenzensulfonamide] | -0.759 |
| CCCCN(CCc1ccc(OC)cc1)S(=O)(=O)c1ccc(C)cc1 [Compound 5d, N-(1-Butyl)-N-(4-methoxyphenethyl)-4-methylbenzensulfonamide] | -1.347 |
| CCCCCN(CCc1ccc(OC)cc1)S(=O)(=O)c1ccc(C)cc1 [Compound 5e, N-(4-Methoxyphenethyl)-4-methyl-N-(1-pentyl)benzensulfonamide] | -0.8411 |

Same assay, conditions: log(inhibitor) vs. response fit, single run; unit inferred; IC50 Raw Data sheet; read-out: IC50 (best-fit value) (converted)

| Structure (SMILES) | IC50 [µM] |
| --- | --- |
| CCCCCCCN(CCc1ccc(OC)cc1)S(=O)(=O)c1ccc(C)cc1 [Compound 5f, N-(1-Heptyl)-N-(4-methoxyphenethyl)-4-methylbenzensulfonamide] | 0.432 |
| CCCCN(CCc1ccc(OC)cc1)S(=O)(=O)c1ccc(C)cc1 [Compound 5d, N-(1-Butyl)-N-(4-methoxyphenethyl)-4-methylbenzensulfonamide] | 0.125 |
| CCCCCN(CCc1ccc(OC)cc1)S(=O)(=O)c1ccc(C)cc1 [Compound 5e, N-(4-Methoxyphenethyl)-4-methyl-N-(1-pentyl)benzensulfonamide] | 0.384 |

Same assay, conditions: mean converted to uM; Raw Data of IC50 sheet; read-out: IC50

| Structure (SMILES) | IC50 [µM] |
| --- | --- |
| CCCCCCCN(CCc1ccc(OC)cc1)S(=O)(=O)c1ccc(C)cc1 [Compound 5f, N-(1-Heptyl)-N-(4-methoxyphenethyl)-4-methylbenzensulfonamide] | 0.444 |
| CCCCN(CCc1ccc(OC)cc1)S(=O)(=O)c1ccc(C)cc1 [Compound 5d, N-(1-Butyl)-N-(4-methoxyphenethyl)-4-methylbenzensulfonamide] | 0.12 |
| CCN(CCc1ccc(OC)cc1)S(=O)(=O)c1ccc(C)cc1 [Compound 5a, N-Ethyl-N-(4-methoxyphenethyl)-4-methylbenzensulfonamide] | 22.5 |
| CCCN(CCc1ccc(OC)cc1)S(=O)(=O)c1ccc(C)cc1 [Compound 5b, N-(4-Methoxyphenethyl)-4-methyl-N-(1-propyl)benzensulfonamide] | 4.16 |
| CCCCCN(CCc1ccc(OC)cc1)S(=O)(=O)c1ccc(C)cc1 [Compound 5e, N-(4-Methoxyphenethyl)-4-methyl-N-(1-pentyl)benzensulfonamide] | 0.398 |

Same assay, conditions: mean of three experiments; Raw Data of IC50 sheet; read-out: IC50 (Mean) (converted)

| Structure (SMILES) | IC50 [µM] |
| --- | --- |
| CCCCCCCN(CCc1ccc(OC)cc1)S(=O)(=O)c1ccc(C)cc1 [Compound 5f, N-(1-Heptyl)-N-(4-methoxyphenethyl)-4-methylbenzensulfonamide] | 0.444 |
| CCCCN(CCc1ccc(OC)cc1)S(=O)(=O)c1ccc(C)cc1 [Compound 5d, N-(1-Butyl)-N-(4-methoxyphenethyl)-4-methylbenzensulfonamide] | 0.12 |
| CCN(CCc1ccc(OC)cc1)S(=O)(=O)c1ccc(C)cc1 [Compound 5a, N-Ethyl-N-(4-methoxyphenethyl)-4-methylbenzensulfonamide] | 22.5 |
| CCCN(CCc1ccc(OC)cc1)S(=O)(=O)c1ccc(C)cc1 [Compound 5b, N-(4-Methoxyphenethyl)-4-methyl-N-(1-propyl)benzensulfonamide] | 4.16 |
| CCCCCN(CCc1ccc(OC)cc1)S(=O)(=O)c1ccc(C)cc1 [Compound 5e, N-(4-Methoxyphenethyl)-4-methyl-N-(1-pentyl)benzensulfonamide] | 0.398 |

Same assay, conditions: values as printed in abstract and discussion; read-out: acetylcholinesterase IC50

| Structure (SMILES) | IC50 [µM] |
| --- | --- |
| CCCCN(CCc1ccc(OC)cc1)S(=O)(=O)c1ccc(C)cc1 [Compound 5d, N-(1-Butyl)-N-(4-methoxyphenethyl)-4-methylbenzensulfonamide] | 0.124 ± 0.021 |
| CCCN(CCc1ccc(OC)cc1)S(=O)(=O)c1ccc(C)cc1 [Compound 5b, N-(4-Methoxyphenethyl)-4-methyl-N-(1-propyl)benzensulfonamide] | 0.119 |
